For seven molecules, IC50 results are on record in patent US20230203031A1, “COMPOUNDS USEFUL FOR INHIBITING CDK7” (Eli Lilly and Company, priority 2020, published 2023).

The test system of assay [1] is phosphoCTD (S2) in HCT116 cells. Nature of the assay: Phospho-carboxyl terminal domain (Ser2) p-CTD (S2) cell based Acumen assay. The following applies: read-out: relative IC50 for phosphoCTD (S2). As for the experimental part:
HCT116 cells (ATCC CCL-247) are cultured in McCoy’s 5 Å Medium Modified media supplemented with 10% FBS, 1% NaPyr, and 1% Pen/Strep and plated (prior to becoming 70% confluent) in 96-well flat-bottom plates at a density of 5,000 cells per well in 100 µL volume. The cells are then incubated overnight in a cell culture incubator (5% CO2, 95% Relative Humidity (RH) and 37° C.) and allowed to attach to the plate. The following morning the cells are dosed with compounds. Compound inhibitors are first solubilized at 60 µM in culture medium containing 0.6% DMSO. Subsequently compound serial dilutions (1:3) are prepared over a 60 µM to 0.003 µM range. Cells are dosed with the addition of 50 µL from serial dilution plate to assay plate containing cells attached with 100 µL of media producing a final DMSO concentration of 0.2% with a final compound concentration dose range between 20 and 0.001 µM. For max point media containing 0.2% of DMSO is used and for min point, a reference compound diluted at 0.83 µM final concentration in the growth media containing 0.2% DMSO is used. After dosing with compounds, the cell plates are incubated at 37° C. and 5% CO2 for 4 hours. The growth media is removed carefully and the cells are fixed by adding 100 µL of 4% para-formaldehyde for 30 minutes at RT. Cells are washed once with PBS and incubated with 100 µL of cold MeOH for 15 minutes at RT for cell permeation. Cells are washed twice with PBS (100 µL/each) and blocked with 100 µL/well of 1% BSA/PBS for 30 minutes at RT. 50 µL of 1:1000 primary antibody (Anti-phospho CTD Ser2 Abcam, cat# ab5095-100) dilution in 1% BSA/PBS are added per well, the plates are sealed and incubated overnight at 4° C.
The following day cells are washed three times with PBS (100 µL/well) and incubated with 50 µL/well of secondary antibody (1:2000 dilution, Goat anti-rabbit IgM ALEXA FLUOR™ 488) in PBS for 1 hour at RT. After washing 3X with PBS (100 µL/well), 100 µL of 50 µg/mL RNAase and 1:1000 propidium iodide dilution in PBS are added per well. Plates are sealed and incubated 1 hour at RT on the bench (preserved from light). Plates are analyzed on Acumen on FL2 (mean intensity) and FL3 (total intensity). Fluorescence plates are scanned with ACUMEN EXPLORER™ [Laser-scanning fluorescence microplate cytometer manufactured by TTP LABTECH LTD] to measure anti-phospho-carboxyl terminal domain at Serine 2 (pCTD). Image analysis is based on cellular fluorescent signals for identifying positive cells. pCTD (S2) positive cells are identified by mean intensity at 500-530 above the threshold. Total intensity at 575-640 from propidium iodide/DNA is used to identify individual cells. Assay output is % pCTD positive cells.
The IC50 is determined by curve fitting to a four parameter logistic for each output using GENE DATA™.

A further assay has as its target CDK9/cyclinT1 (Homo sapiens, UniProt P50750). Put plainly: Assay for inhibition of CDK9/CyclinT1 kinase activity (radiolabel filter binding). The following applies: IC50 for CDK9 (3 hours preincubation), 100 µM ATP.
The test system of the next assay is cMyc in HCT116 cells. Put plainly: cMyc cell based Acumen assay. To be noted: read-out: Relative IC50 for cMyc. As for the experimental part: HCT116 cells (ATCC CCL-247) are cultured in McCoy’s 5 Å Medium Modified media supplemented with 10% FBS, 1% NaPyr, and 1% Pen/Strep and plated (prior to becoming 70% confluent) in 96-well flat-bottom plates at a density of 5,000 cells per well in 100 µL volume. The cells are then incubated overnight in a cell culture incubator (5% CO2, 95% Relative Humidity (RH), and 37° C.) and allowed to attach to the plate. The following morning the cells are dosed with compounds. Compound inhibitors are solubilized at 60 µM in culture medium containing 0.6% DMSO. Subsequently, compound serial dilutions (1:3) are prepared over a 60 µM to 0.003 µM range. Cells are dosed with the addition of 50 µL from serial dilution plate to assay plate containing cell attached with 100 µL of media producing a final DMSO concentration of 0.2% with a final compound concentration dose range between 20 µM and 0.001 µM. For max point media containing 0.2% of DMSO is used and for min point, a reference compound diluted at 0.83 µM final concentration in the growth media containing 0.2% DMSO is used. After dosing with compounds, the cell plates are incubated at 37° C. and 5% CO2 for 4 hours. Growth media is removed carefully and the cells are fixed by adding 100 µL of 4% para-formaldehyde for 30 minutes at RT. Cell are washed once with PBS and incubated with 100 µL of cold MeOH for 15 minutes at RT for cell permeation. Again cell are washed twice with PBS (100 µL/each) and blocked with 100 µL/well of 1% BSA/PBS for 30 minutes at RT. 50 µL of 1:1000 primary antibody (Anti-c-Myc antibody [Y69] Abcam cat# ab32072) dilution in 1% BSA/PBS are added per well, the plates sealed and incubated overnight at 4° C. The following day cells are washed three times with PBS (100 µL/well) and incubated with 50 µL/well of secondary antibody (1:2000 dilution, Goat anti-rabbit IgM ALEXA FLUOR™ 488) in PBS for 1 hour at RT. After wash 3× with PBS (100 µL/well), 100 µL of 50 µg/mL RNAase and 1:1000 propidium iodide (Invitrogene) dilution in PBS are added per well. Plates are sealed and incubated for 1 hour at RT on the bench (preserved from light). Plates are analyzed on Acumen on FL2 (mean intensity), and FL3 (total intensity). Fluorescence Plates are scanned with ACUMEN EXPLORER™ [Laser-scanning fluorescence microplate cytometer manufactured by TTP LABTECH LTD] to measure anti-phospho-carboxyl terminal domain at Serine 5 (pCTD). Image analysis is based on cellular fluorescent signals for identifying positive cells. pCTD (S5) positive cells are identified by mean intensity at 500-530 above the threshold. Total intensity at 575-640 from propidium iodide/DNA is used to identify individual cells. Assay output is % pCTD positive cells. The IC50 is determined by curve fitting to a four parameter logistic for each output using GENE DATA™.

Where two headings read alike, the source gives them in different places.

By IC50 is commonly meant the point on the concentration scale where inhibition reaches its midpoint.

CDK9/cyclinT1, sequence (P50750 whole entry): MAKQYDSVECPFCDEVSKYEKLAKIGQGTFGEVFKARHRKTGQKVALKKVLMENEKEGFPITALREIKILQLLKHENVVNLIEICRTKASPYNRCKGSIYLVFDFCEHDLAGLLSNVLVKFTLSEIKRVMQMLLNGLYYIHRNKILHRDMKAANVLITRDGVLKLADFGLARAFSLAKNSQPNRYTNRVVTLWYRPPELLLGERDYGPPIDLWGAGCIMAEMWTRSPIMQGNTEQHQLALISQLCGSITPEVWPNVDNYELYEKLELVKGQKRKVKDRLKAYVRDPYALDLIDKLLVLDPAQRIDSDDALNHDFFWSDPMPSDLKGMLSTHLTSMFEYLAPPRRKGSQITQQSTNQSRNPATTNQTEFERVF
CDK9/cyclinT1, sequence (O60563 whole entry partner): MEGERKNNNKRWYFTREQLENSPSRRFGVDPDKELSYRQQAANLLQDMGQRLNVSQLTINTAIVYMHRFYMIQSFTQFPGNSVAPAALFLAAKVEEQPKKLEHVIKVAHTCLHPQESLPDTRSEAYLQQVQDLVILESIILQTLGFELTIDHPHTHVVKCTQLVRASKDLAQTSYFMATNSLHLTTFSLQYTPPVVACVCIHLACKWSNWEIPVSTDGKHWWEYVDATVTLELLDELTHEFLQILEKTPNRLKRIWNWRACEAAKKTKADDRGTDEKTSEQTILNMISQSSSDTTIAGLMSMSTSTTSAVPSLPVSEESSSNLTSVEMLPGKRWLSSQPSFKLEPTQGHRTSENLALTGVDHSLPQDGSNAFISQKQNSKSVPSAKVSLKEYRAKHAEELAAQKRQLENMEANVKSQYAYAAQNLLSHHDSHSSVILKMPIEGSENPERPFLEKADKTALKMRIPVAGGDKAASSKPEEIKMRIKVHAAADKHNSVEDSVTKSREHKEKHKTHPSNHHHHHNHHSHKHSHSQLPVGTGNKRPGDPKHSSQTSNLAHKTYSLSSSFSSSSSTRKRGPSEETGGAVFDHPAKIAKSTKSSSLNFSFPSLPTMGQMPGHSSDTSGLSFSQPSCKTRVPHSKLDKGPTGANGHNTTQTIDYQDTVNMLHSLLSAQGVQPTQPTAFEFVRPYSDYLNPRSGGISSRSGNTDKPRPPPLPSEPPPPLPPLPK
Protocol for CDK9/cyclinT1: The purpose of these assays is to measure the ability of the compounds described herein to inhibit CDK7/CyclinH/Mat1 complex kinase activity. […] The IC50 determination for CDK7 and CDK9 are determined as follows.
The IC50 activity of the compounds described herein is determined using radiolabel filter binding (FB) assays using the purified human recombinant enzyme in the presence of ATP and peptide substrate. The ATP concentrations chosen are at or near the enzyme Km for ATP. Reactions are carried out in 96 well polystyrene plates in a final volume of 25 µL per well. 5 µL of test compound in 20% DMSO, 10 µL of substrate solution (ATP//[^33P]ATP and CDK7/9 tide) and 10 µL of enzyme solution are mixed. […] The enzyme solution is prepared for a final concentration of 7.5 nM CDK9/cyclinTl enzyme [Proqinase 0371-0345-1 (Lot 004)] diluted in kinase buffer. Test compounds are serially diluted 1:3 in 20% DMSO to create a 10 point curve at a starting concentration of 20 µM. 20% DMSO buffer alone without test compound is employed as high control (full activity in the absence of any inhibitor), 500 mM EDTA is used to determine the level of background in the absence of enzyme activity (low control). After mixing 5 µL of compounds with 10 µL of enzyme solution, the plate is incubated for 0 or 180 minutes at 22° C. After that time, the reaction is initiated by the addition of 10 µL substrate solution and incubated for 60 minutes at 22° C. The reaction is terminated by the addition of 80 µL of cold 10% orthophosphoric solution. Filter plates (opaque, non-sterile filter plates) are prewashed with 10 µL of 10% orthophosphoric solution per well. 100 µL of the mixture are transferred to a phosphocellulose filter and incubate at room temperature for 45 minutes. Filter plates are washed with 200 µL 0.5 % orthophosphoric acid 3 times on a filter plate processor. 80 µL of MICROSCINT™ is added to each well and read on a scintillation counter after an hour. Data is processed through a [sequence]-[sequence]Ⓡ tool. Data is analyzed using a 4-parameter nonlinear logistic equation (four-parameter logistic concentration-response curve): Y = bot + [(top-bot)/1+(x/ IC50)Slope] where Y = % inhibition, X = concentration yielding y% inhibition, Bottom = minimum value of y attained by curve, Top = maximum value of y attained by curve and Slope = steepness of curve at IC50. %Inh = [(median Max- x/ median Max - median Min)] . 100 IC50: concentration of compound that reduces a given response (ligand binding, enzyme response) by 50%. IC50 relative: concentration giving half the compound’s maximum response.

`[2H]CC([2H])(C)c1cnc2c(NC3CCN(C[C@@H]4CN(C(=O)C=C)CCO4)CC3)cc(C(F)(F)F)cn12` (mixture of isomers) [Example 7, 1-[(2R)-2-[[4-[[3-[rac-1,2-dideuterio-1-methyl-ethyl]-6-(trifluoromethyl)imidazo[1,2-a]pyridin-8-yl]amino]-1-piperidyl]methyl]morpholin-4-yl]prop-2-en-1-one]: the IC50 in assay [1] (Homo sapiens, HCT-116, 4 h) was 2920 nM; at CDK9/cyclinT1 it was 2030 nM; with cMyc in HCT116 cells (Homo sapiens, HCT-116, 4 h), 13.8 nM.
The corresponding values for `C=CC(=O)N1CCO[C@H](CN2CCC(Nc3cc(C(C)F)cn4c(C(C)C)cnc34)CC2)C1` (single isomer, unassigned) [Example 1] are 5730 nM, 1770 nM and 82 nM.
For `C=CC(=O)N1CCO[C@H](CN2CCC(Nc3cc(C(C)F)cn4c(C(C)C)cnc34)CC2)C1` (single isomer, unassigned) [Example 2], the figures for the concentration for half-maximal inhibition (IC50) (in assay [1] (4 hours); on CDK9/cyclinT1; in the assay on cMyc in HCT116 cells (4 hours)) were 6360 nM, 3180 nM and 94.7 nM, respectively.
Take `C=CC(=O)N1CCO[C@H](CN2CCC(Nc3cc(C(C)O)cn4c(C(C)C)cnc34)CC2)C1` (single isomer, unassigned) [Example 4]: the results for the IC50 (in assay [1] (4 hours); at CDK9/cyclinT1; in the assay on cMyc in HCT116 cells (4 hours)) were 3710 nM, 8050 nM and 38 nM, respectively.
Turning to `C=CC(=O)N1CCO[C@H](CN2CCC(Nc3cc(C(C)O)cn4c(C(C)C)cnc34)CC2)C1` (single isomer, unassigned) [Example 5], the IC50 in assay [1] (4 hours) was 7790 nM; at CDK9/cyclinT1 it was 7130 nM; in the assay with cMyc in HCT116 cells (4 hours), 140 nM.
Consider `[2H]C([2H])=C([2H])C(=O)N1CCO[C@H](CN2CCC(Nc3cc(C(F)(F)F)cn4c(C(C)C)cnc34)CC2)C1` [Example 6, 2,3,3-trideuterio-1-[(2R)-2-[[4-[[3-isopropyl-6-(trifluoromethyl)imidazo[1,2-a]pyridin-8-yl]amino]-1-piperidyl]methyl]morpholin-4-yl]prop-2-en-1-one], for which the IC50 was found to be 3790 nM in assay [1] (Homo sapiens, HCT-116, 4 h); 1610 nM at CDK9/cyclinT1; 7.91 nM in the assay with cMyc in HCT116 cells (Homo sapiens, HCT-116, 4 h).
For `C=CC(=O)N1CCO[C@H](CN2CCC(Nc3cc(C(F)(F)F)cn4c(C(C)C)cnc34)CC2)C1` [Example 8, 1-[(2R)-2-[[4-[[3-isopropyl-6-(trifluoromethyl)imidazo[1,2-a]pyridin-8-yl]amino]-1-piperidyl]methyl]morpholin-4-yl]prop-2-en-1-one] the same measures were 2590 nM, 2140 nM and 24.5 nM.
